{"source": "patent US20240207258A1", "about": "“HETEROCYCLIC PDK1 INHIBITORS FOR USE TO TREAT CANCER” (Viracta Therapeutics, Inc., priority 2015, published 2024)", "key": {"[1]": {"experiment": "Compound concentration in MV4-11 tumors by LC-MS/MS", "type": "in vivo, mice", "settings": "50 mg/kg oral", "method": "(§1) MV4-11 cells propagated in vitro were implanted subcutaneous into the right flank of 9-week old female NCr nu/nu mice. On the day of implant, MV4-11 cells were harvested during log phase growth and resuspended in phosphate buffered saline (PBS) containing 50% Matrigel™ (BD Biosciences) at a concentration of 1×10^8 cells/mL. Xenografts were initiated by subcutaneously implanting 1×10^7 MV-4-11 cells (0.1 mL suspension) into the right flank of each test animal and tumors were monitored as their volumes approached the target range of 175 to 225 mm^3. Two weeks after implantation, animals were assigned to individual groups of 3 animals with and average tumor volume of approximately 200 mm^3. […] Eight hours post-dose, full blood volume was collected by cardiac puncture under isoflurane anesthesia and tumors were excised and snapfrozen in liquid nitrogen and stored at −80° C. until further analysis. Tumors were pulverized in liquid nitrogen using a Biopulverizer and split into two sample tubes: one for Western blot analysis and one for analysis of compound levels by LC-MS/MS. Western blot analysis was performed as described above. […] Standards and samples were analyzed on a PE Sciex API4000 instrument and compound concentration was quantified and back-calculated to ng compound per g tumor tissue and converted to M concentration assuming 1 g tumor tissue equals 1 mL volume."}, "P-PDK1": {"tested_on": "P-PDK1", "experiment": "Pathway modulation in MV4-11 tumor xenografts, pPDK1", "type": "in vivo, mice", "settings": "MV4-11 tumors, 50 mg/kg oral, 8 hrs", "source_text": "MV4-11 cells propagated in vitro were implanted subcutaneous into the right flank of 9-week old female NCr nu/nu mice. On the day of implant, MV4-11 cells were harvested during log phase growth and resuspended in phosphate buffered saline (PBS) containing 50% Matrigel™ (BD Biosciences) at a concentration of 1×10^8 cells/mL. […] Two weeks after implantation, animals were assigned to individual groups of 3 animals with and average tumor volume of approximately 200 mm^3. […] Eight hours post-dose, full blood volume was collected by cardiac puncture under isoflurane anesthesia and tumors were excised and snapfrozen in liquid nitrogen and stored at −80° C. until further analysis. Tumors were pulverized in liquid nitrogen using a Biopulverizer and split into two sample tubes: one for Western blot analysis and one for analysis of compound levels by LC-MS/MS. […] For MS analysis, tumor samples were homogenized with a Virsonic 100 ultrasonic homogenizer. Each sample was first weighed, and then an appropriate volume of 20:80 methanol:water was added to make a 9 mL/gram sample. Samples were then homogenized on ice, and stored frozen until analysis. Standards were prepared in BALB/c mouse plasma or blank homogenized tumor tissue. Standards and samples were analyzed on a PE Sciex API4000 instrument and compound concentration was quantified and back-calculated to ng compound per g tumor tissue and converted to M concentration assuming 1 g tumor tissue equals 1 mL volume."}, "[2]": {"tested_on": "hematologic tumor cell lines", "experiment": "MTS cell proliferation assay, panel of hematologic cancer cell lines", "type": "cell-based", "settings": "range over 16 cell lines, FIG. 3; read-out: potency in the cell proliferation assay (EC50)", "method": "Cell proliferation was measured using the CellTiter 96 Aqueous Non-Radioactive Cell Proliferation Assay (Promega). The CellTiter 96® AQueous Assay is composed of solutions of a tetrazolium compound [3-(4,5-dimethylthiazol-2-yl)-5-(3-carboxymethoxyphenyl)-2-(4-sulfophenyl)-2H-tetrazolium, inner salt; MTS] and an electron coupling reagent (phenazine methosulfate) PMS. MTS is bioreduced by cells into a formazan product that is soluble in tissue culture medium. The absorbance of the formazan product at 490 nm can be measured directly from assay plates without additional processing. The quantity of formazan product as measured by the amount of 490 nm absorbance is directly proportional to the number of living cells in culture. Cells were seeded into 96-well or 384-well clear plates in a volume of 200 μL (96-well) or 50 μL (384-well) at optimized densities ranging from 1,000 to 40,000 cells per well for 96-well plates or 1,200 to 25,000 cells per well for 384-well plates depending on cell-line. After 4-6 hr recovery, serially diluted compounds in DMSO were added to the cells using (0.1% v/v final DMSO concentration). Cells were then grown at 37° C. in a humidified incubator with 5% CO2 for 72 hr. A 20:1 [3-(4,5-dimethylthiazol-2-yl)-5-(3-carboxymethoxyphenyl)-2-(4-sulfophenyl)-2H-tetrazolium](MTS):phenazine methosulfate (PMS) solution in DPBS was made immediately before use, added to each well, and cells were incubated for 1.5 hr at 37° C. The absorbance at 490 nm was then measured using a platereader. Absorbance values were normalized as percent of control (cells incubated in the presence of 0.1% v/v DMSO). Sigmoidal dose-response curves were plotted using log(inhibitor) vs. response—Variable slope (four parameters) model with a top value constrained to 100% (GraphPad Prism version 6.00 for Windows, GraphPad Software, La Jolla California USA). […] Curves for compounds that reached a plateau were matched exactly to the measurement points. […] To determine potential of compounds of the invention to affect viability of hematological cancers, cell lines representing various tumor types were selected and tested. Human cell lines tested were: MOLM-13 (acute myeloid leukemia (AML)), MV4-11 (AML), U-2932 (ABC-diffuse large B cell lymphoma), U-937 (histiocytic lymphoma), U-266 (multiple myeloma), RPMI-8226 (multiple myeloma), CMK (megakaryoblastic cell line), SU-DHL-4 (GCB-diffuse large B cell lymphoma), KG1 (AML), Mec-1 (chronic B-cell leukemia), MOLM-16 (AML), Jeko (B-cell lymphoma), WSU-DLCL2 (B-cell lymphoma), JJN3 (plasma cell leukemia), SU-DHL-6 (GCB-diffuse large B cell lymphoma), and Z-138 (mantle cell lymphoma). In addition, two murine cell lines were tested: A20 […]."}, "AKT phosphorylation": {"tested_on": "AKT phosphorylation", "experiment": "Pathway modulation in MV4-11 tumor xenografts, pAKT", "type": "in vivo, mice", "settings": "MV4-11 tumors, 50 mg/kg oral, 8 hrs", "method": "as §1"}}, "data": [{"smiles": "CS(=O)(=O)N1CCN(Cc2cc3nc(-c4cccc5[nH]ncc45)nc(N4CCOCC4)c3s2)CC1", "note": "[GDC-0941, pictilisib]", "values": [{"measurement": "tumor exposure", "setting": "[1]", "value": "0.4 to 1.4", "unit": "mM"}, {"measurement": "inhibition of P-PDK1", "setting": "P-PDK1", "value": 25, "unit": "%"}, {"measurement": "inhibition of PDK1 in tumors", "setting": "P-PDK1", "value": 45, "unit": "%"}, {"measurement": "EC50", "setting": "[2]", "value": "0.05 to 6.1", "unit": "µM"}, {"measurement": "inhibition of P-AKT in tumors", "setting": "AKT phosphorylation", "value": "no inhibition"}]}]}
